Data taken from patent publication US9393276B2, “Edible composition” (Conopco,Inc., priority 2012, dated 2016).

Tests used:
[1] = tested on: Rat Insulinoma cell lines (RIN-5F); experiment: β-cell assay for protection against gluco-lipo toxicity (diabetes model); format: cell-based; settings: RIN-5F cells treated with glucose and Palmitate-BSA complex, 18 hrs, neutral red; change with respect to Control 2 (glucose and Palmitate only); wt % of ingredients as per example
Description: This RPMI 1640 medium contains 2 g/L of glucose supplemented with 25 mM HEPES (4-(2-hydroxyethyl)-1-piperazineethanesulfonic acid, SRL Cat No: 084023C).
After that a complete medium was prepared by adding 100 μL of 100 mM Sodium pyruvate (Sigma, Cat No: P5280) and 10% (vv) in 100 mL of RPMI 1640.
100 μL/well of complete medium with the added Rat Insulinoma cell (RIN-5F, ATCC (USA)) was plated in a 96 well flat bottom plate (NEST Biotechnology Co. Ltd, Cat No 701001) so that the cell concentration is maintained at a level of 3.5×10^4 cells/well. This plate was then introduced in an incubator (Thermo Scientific, Model 3111; conditions: 5% CO2, at 37° C.) for 24 hours.
2.267 g of ultra Fatty Acid Free BSA (Roche applied sciences, Cat No: 03117405001) was added to 100 mL of 150 mM NaCl and stirred constantly at a maintained temperature of ˜37° C. […] After that this solution was filtered with a syringe filter of pore size of 0.22 μm (Millipore®, Cat no: SLGPO33RS). • 3. […]
After 4 hrs the neutral red medium was removed by aspiration using a micropipette and cells were washed with 100 μL/well of PBS solution (same as prepared above) to remove the excess stain. […] The colorimetric reading (absorbance) of the bound stain was read at a wavelength of 540 nm in a microwell plate reader (BIO-RAD LAB INDIA, Model No. 680). The efficacy of the test ingredients were evaluated with respect to the Control 2.

[2] = tested on: Rat Insulinoma cell lines (RIN-5F); settings: 24 h
Description: Before starting the experiment it was needed to determine the cytotoxic dose for the Inula racemosa extract and theobromine. The cytotoxicity of both materials was determined as follows by Neutral red assay:
The Rat Insulinoma cell lines (RIN-5F, ATCC (USA)) was plated at a density of 3.5×10^4 cells/well (Volume 100 μL) in a 96 well plate (NEST Biotechnology Co. Ltd, Cat No 701001) and placed it in an incubator (Thermo Scientific, Model 3111; conditions: 5% CO2, at 37° C.) for 24 hours. After the incubation 10 μL of Inula racemosa water extract (at different concentration e.g. 10%, 1%, 0.1%, 0.01%, 0.001%, 0.0001% and 0.00001%) and 10 μL of theobromine solution (at different concentration e.g. 10%, 1%, 0.1%, 0.01%, 0.001%, 0.0001% and 0.00001%) were added to the culture and incubated for 24 hours in the same incubator. As a control in some wells there was no addition of either Inula racemosa or theobromine (only medium and cells). […]
The bound stain was extracted out from the cells by adding 150 μL of desorption solution and dissolved the dye completely. […] The absorbance of the stain extracted out from the cells was measured at 540 nm in a microwell plate reader (BIO-RAD LAB INDIA, Model No. 680).
The percentage of live cells was calculated using the below mentioned formula: […]

Cn1cnc2c1c(=O)[nH]c(=O)n2C [E, Theobromine]
% change in cell viability [1]: 5 ± 2%

Cn1cnc2c1c(=O)[nH]c(=O)n2C [theobromine, 3,7-dimethylxanthine]
non-cytotoxic concentration [2]: ≤ 0.001%
